The compounds below were run against T1, ERR1 (also known as ERR-α or ERR-1) (Homo sapiens, UniProt P11474) (assay: TR-FRET assay (disruption of co-activator peptide binding to ERR1 LBD)). Settings: 6 nM 6His-ERR1LBD, 6 nM GST-SRC-2 peptide; average of 3 independent experiments.
T1 sequence (P11474 193-421 limits assumed): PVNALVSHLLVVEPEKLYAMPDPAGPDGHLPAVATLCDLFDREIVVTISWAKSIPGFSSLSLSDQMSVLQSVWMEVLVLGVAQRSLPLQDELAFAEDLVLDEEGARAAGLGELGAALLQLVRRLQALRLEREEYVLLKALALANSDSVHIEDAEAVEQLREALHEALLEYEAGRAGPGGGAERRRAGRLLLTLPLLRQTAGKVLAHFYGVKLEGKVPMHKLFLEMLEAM
Assay type: biochemical
Summary of the method: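 His-tagged ERR1 ligand-binding domain and GST-labelled SRC-2 peptide, each 6 nM, equilibrated at 25° C for 4-18 h in Tris pH 8/Hepes/KCl/DTT/delipidated BSA buffer. Compound-induced loss of co-activator binding read as Eu cryptate→XL665 energy transfer; values from hyperbolic curve fits averaged over 3 independent runs.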

EC50 [nM] | SMILES
290 | O=C1S/C(=C\c2ccc3c(c2)c(O)nn3Cc2ccc(Cl)cc2C(F)(F)F)C(=O)N1CCN1CCCC1 [Compound 37, (5Z)-5-({1-[4-Chloro-2-(trifluoromethyl)benzyl]-3-oxo-2,3-dihydro-1H-indazol-5-yl}methylidene)-3-(2-pyrrolidin-1-ylethyl)-1,3-thiazolidine-2,4-dione]
320 | O=C1S/C(=C\c2ccc3c(ccn3Cc3ccc(Cl)cc3C(F)(F)F)c2)C(=O)N1CCN1CCOCC1 [Compound 254, (5Z)-5-({1-[4-Chloro-2-(trifluoromethyl)benzyl]-1H-indol-5-yl}methylidene)-3-(2-morpholin-4-ylethyl)-1,3-thiazolidine-2,4-dione]
67 | COc1ccc(Cn2ncc3cc(/C=C4\SC(=O)N(C5CCNCC5)C4=O)ccc32)c(C(F)(F)F)c1 [Compound 26, (5Z)-5-({1-[4-Methoxy-2-(trifluoromethyl)benzyl]-1H-indazol-5-yl}methylidene)-3-piperidin-4-yl-1,3-thiazolidine-2,4-dione]
136 | O=C1S/C(=C\c2ccc3c(cnn3Cc3ccc(Cl)cc3C(F)(F)F)c2)C(=O)N1Cc1c[nH]nn1 [Compound 85, (5Z)-5-({1-[4-Chloro-2-(trifluoromethyl)benzyl]-1H-indazol-5-yl}methylidene)-3-(1H-1,2,3-triazol-4-ylmethyl)-1,3-thiazolidine-2,4-dione]
33 | CCN1C[C@@H](N2C(=O)S/C(=C\c3ccc4c(cnn4Cc4ccc(Cl)cc4C(F)(F)F)c3)C2=O)[C@@H](F)C1 (relative stereo) [Compound 324, (5Z)-5-({1-[4-Chloro-2-(trifluoromethyl)benzyl]-1H-indazol-5-yl}methylidene)-3-[cis-1-ethyl-4-fluoropyrrolidin-3-yl]-1,3-thiazolidine-2,4-dione]
38 | O=C1S/C(=C\c2ccc3c(cnn3Cc3ccc(Cl)cc3C(F)(F)F)c2)C(=O)N1CCN1CCNCC1 [Compound 163, (5Z)-5-({1-[4-Chloro-2-(trifluoromethyl)benzyl]-1H-indazol-5-yl}methylidene)-3-(2-piperazin-1-ylethyl)-1,3-thiazolidine-2,4-dione]
17 | CC[C@H](N)CN1C(=O)S/C(=C\c2ccc3c(cnn3Cc3ccc(Cl)cc3C(F)(F)F)c2)C1=O [Compound 154, 3-[(2S)-2-Aminobutyl]-(5Z)-5-({1-[4-chloro-2-(trifluoromethyl)benzyl]-1H-indazol-5-yl}methylidene)-1,3-thiazolidine-2,4-dione]
35 | CN1CCCC(N2C(=O)S/C(=C\c3ccc4c(cnn4Cc4ccc(Cl)cc4C(F)(F)F)c3)C2=O)C1 (centres unmarked) [Compound 136, (5Z)-5-({1-[4-Chloro-2-(trifluoromethyl)benzyl]-1H-indazol-5-yl}methylidene)-3-(1-methylpiperidin-3-yl)-1,3-thiazolidine-2,4-dione]
120 | O=C(O)CN1C(=O)S/C(=C\c2ccc3c(ccn3Cc3ccc(Cl)cc3C(F)(F)F)c2)C1=O [Compound 253, [(5Z)-5-({1-[4-Chloro-2-(trifluoromethyl)benzyl]-1H-indol-5-yl}methylidene)-2,4-dioxo-1,3-thiazolidin-3-yl]acetic acid]
107 | COC(=O)C1(N2C(=O)S/C(=C\c3ccc4c(cnn4Cc4ccc(Cl)cc4C(F)(F)F)c3)C2=O)CCCC1 [Compound 232, Methyl 1-[(5Z)-5-({1-[4-chloro-2-(trifluoromethyl)benzyl]-1H-indazol-5-yl}methylidene)-2,4-dioxo-1,3-thiazolidin-3-yl]cyclopentanecarboxylate]
87 | CS(=O)(=O)CCN1CCC[C@H]1CN1C(=O)S/C(=C\c2ccc3c(cnn3Cc3ccc(Cl)cc3C(F)(F)F)c2)C1=O [Compound 159, (5Z)-5-({1-[4-Chloro-2-(trifluoromethyl)benzyl]-1H-indazol-5-yl}methylidene)-3-({(2S)-1-[2-(methylsulfonyl)ethyl]pyrrolidin-2-yl}methyl)-1,3-thiazolidine-2,4-dione]
21 | CN1C[C@@H](F)[C@H](N2C(=O)S/C(=C\c3ccc4c(cnn4Cc4ccc(Cl)cc4C(F)(F)F)c3)C2=O)C1 (relative stereo) [Compound 319, (5Z)-5-({1-[4-Chloro-2-(trifluoromethyl)benzyl]-1H-indazol-5-yl}methylidene)-3-[trans-4-fluoro-1-methylpyrrolidin-3-yl]-1,3-thiazolidine-2,4-dione]
12 | O=C1S/C(=C\c2ccc3c(cnn3Cc3ccc(Cl)cc3C(F)(F)F)c2)C(=O)N1[C@@H]1CNC[C@H]1F (relative stereo) [Compound 317, (5Z)-5-({1-[4-Chloro-2-(trifluoromethyl)benzyl]-1H-indazol-5-yl}methylidene)-3-[trans-4-fluoropyrrolidin-3-yl]-1,3-thiazolidine-2,4-dione]
47 | O=C1S/C(=C\c2ccc3c(cnn3Cc3ccc(Cl)cc3C(F)(F)F)c2)C(=O)N1CCC1CCNCC1 [Compound 164, (5Z)-5-({1-[4-Chloro-2-(trifluoromethyl)benzyl]-1H-indazol-5-yl}methylidene)-3-(2-piperidin-4-ylethyl)-1,3-thiazolidine-2,4-dione]
29 | COC[C@@H](N)CN1C(=O)S/C(=C\c2ccc3c(cnn3Cc3ccc(Cl)cc3C(F)(F)F)c2)C1=O [Compound 168, (5Z)-3-[(2S)-2-Amino-3-methoxypropyl]-5-({1-[4-chloro-2-(trifluoromethyl)benzyl]-1H-indazol-5-yl}methylidene)-1,3-thiazolidine-2,4-dione]
28 | O=C1S/C(=C\c2ccc3c(cnn3Cc3ccc(Cl)cc3C(F)(F)F)c2)C(=O)N1C1CCCNCC1 (centres unmarked) [Compound 77, (5Z)-3-Azepan-4-yl-5-({1-[4-chloro-2-(trifluoromethyl)benzyl]-1H-indazol-5-yl}methylidene)-1,3-thiazolidine-2,4-dione]
27 | O=C1S/C(=C\c2ccc3c(cnn3Cc3ccc(Cl)cc3C(F)(F)F)c2)C(=O)N1CCNCCO [Compound 52, (5Z)-5-({1-[4-Chloro-2-(trifluoromethyl)benzyl]-1H-indazol-5-yl}methylidene)-3-{2-[(2-hydroxyethyl)amino]ethyl}-1,3-thiazolidine-2,4-dione]
133 | O=C(NC1(CN2C(=O)S/C(=C\c3ccc4c(cnn4Cc4ccc(C(F)(F)F)cc4C(F)(F)F)c3)C2=O)CCOCC1)C1CC1 [Compound 311, N-(4-{[(5Z)-5-({1-[2,4-Bis(trifluoromethyl)benzyl]-1H-indazol-5-yl}methylidene)-2,4-dioxo-1,3-thiazolidin-3-yl]methyl}tetrahydro-2H-pyran-4-yl) cyclopropanecarboxamide]
127 | O=C1S/C(=C\c2ccc3c(cnn3Cc3ccc(Cl)cc3C(F)(F)F)c2)C(=O)N1CCN1CC(F)(F)C1 [Compound 75, (5Z)-5-({1-[4-Chloro-2-(trifluoromethyl)benzyl]-1H-indazol-5-yl}methylidene)-3-[2-(3,3-difluoroazetidin-1-yl)ethyl]-1,3-thiazolidine-2,4-dione]
300 | O=C1S/C(=C\c2ccc3c(cnn3[C@H]3CCc4cc(Cl)ccc43)c2)C(=O)N1CCN1CCCC1 [Compound 172, (5Z)-5-({1-[(1S)-5-Chloro-2,3-dihydro-1H-inden-1-yl]-1H-indazol-5-yl}methylidene)-3-(2-pyrrolidin-1-ylethyl)-1,3-thiazolidine-2,4-dione]
12 | COc1ccc(Cn2ncc3cc(/C=C4\SC(=O)N(C5CCC(C(=O)NS(C)(=O)=O)CC5)C4=O)ccc32)c(C(F)(F)F)c1 (centres unmarked) [Compound 24, 4-[(5Z)-5-({1-[4-Methoxy-2-(trifluoromethyl)benzyl]-1H-indazol-5-yl}methylidene)-2,4-dioxo-1,3-thiazolidin-3-yl]-N-(methylsulfonyl) cyclohexanecarboxamide]
25 | CCN1CCC(N2C(=O)S/C(=C\c3ccc4c(cnn4Cc4ccc(Cl)cc4C(F)(F)F)c3)C2=O)CC1 [Compound 118, (5Z)-5-({1-[4-Chloro-2-(trifluoromethyl)benzyl]-1H-indazol-5-yl}methylidene)-3-(1-ethylpiperidin-4-yl)-1,3-thiazolidine-2,4-dione]

SMILES | EC50 [nM]
COC(=O)[C@@H](COC(C)(C)C)N1C(=O)S/C(=C\c2ccc3c(cnn3Cc3ccc(Cl)cc3C(F)(F)F)c2)C1=O [Compound 212, Methyl (2R)-3-tert-butoxy-2-[(5Z)-5-({1-[4-chloro-2-(trifluoromethyl)benzyl]-1H-indazol-5-yl}methylidene)-2,4-dioxo-1,3-thiazolidin-3-yl]propanoate] | 250
O=C1S/C(=C\c2ccc3c(cnn3Cc3ccc(Cl)cc3C(F)(F)F)c2)C(=O)N1Cc1cc(O)no1 [Compound 138, (5Z)-5-({1-[4-Chloro-2-(trifluoromethyl)benzyl]-1H-indazol-5-yl}methylidene)-3-[(3-hydroxyisoxazol-5-yl)methyl]-1,3-thiazolidine-2,4-dione] | 42
COC(=O)[C@H](COC(C)(C)C)N1C(=O)S/C(=C\c2ccc3c(cnn3Cc3ccc(Cl)cc3C(F)(F)F)c2)C1=O [Compound 210, Methyl (2S)-3-tert-butoxy-2-[(5Z)-5-({1-[4-chloro-2-(trifluoromethyl)benzyl]-1H-indazol-5-yl}methylidene)-2,4-dioxo-1,3-thiazolidin-3-yl]propanoate] | 260
O=C1S/C(=C\c2ccc3c(cnn3Cc3ccc(C(F)(F)F)cc3C(F)(F)F)c2)C(=O)N1C1CN2CCC1CC2 (centres unmarked) [Compound 63, (5Z)-3-(1-Azabicyclo[2.2.2]oct-3-yl)-5-({1-[2,4-bis(trifluoromethyl)benzyl]-1H-indazol-5-yl}methylidene)-1,3-thiazolidine-2,4-dione] | 20

Source: patent publication US8796256B2 (Janssen Pharmaceutica NV, priority 2010, dated 2014)
